Consider eight sequences from patent publication US20160251403A1, “PEPTIDE COMBINATIONS AND USES THEREOF IN TREATING DUST MITE ALLERGY” (ALK-ABELLO A/S, priority 2013, published 2016).

No end group written: not given here.

One data set addresses DRB1_0901 (Homo sapiens, UniProt P01903+P01911, A100R/A103E/D57H/D86V/F55Y/F60I/F76Y/I96F/K127E/L162R/M171V/P40D/Q125H/Q99R/R33Q/R42F/S133A/S66N/T210M/V115G/W38K/Y107V/Y59G/Y89S). The experiment in a line: Competitive MHC class II binding assay, DRB1_0901.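 Further: displacement of a radiolabeled probe peptide from purified HLA class II protein, bound counts read after two to four days incubation, six concentrations spanning 100,000-fold, unlabeled probe as reference.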
The next data set has as its target DRB1_0401 (Homo sapiens, UniProt P01903+P01911, A100K/A169T/F76Y/I96L/K127E/L162R/M171V/N62H/P40V/Q125Y/R42H/S133A/S149N/S66Y/V115G/V209L/W38E). The experiment in a line: Competitive MHC class II binding assay, DRB1_0401.
In another data set the target is DRB1_0101 (Homo sapiens, UniProt P01903+P01911, A100R/D57E/F55L/F60I/F76Y/I96L/L162R/M171V/P40L/Q125E/R42F/V115G/Y59C). The experiment in a line: Competitive MHC class II binding assay, DRB1_0101.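 Further: competition against a radiolabeled probe peptide (0.1–1 nM) for purified HLA class II protein over 2–4 days, bound counts read after antibody capture, six competitor levels across 100,000-fold.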
In the next data set the target is DRB1_0701 (Homo sapiens, UniProt P01903+P01911, A100R/A102G/A103Q/D57E/D86V/E43K/F76Y/K127E/L162R/M171V/P40G/Q125H/Q99D/R33Q/R42Y/R54Q/S133A/S66F/T210M/V115G/Y107V/Y59L/Y89S). The experiment in a line: Competitive MHC class II binding assay, DRB1_0701.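 Further: displacement of a radiolabeled reference peptide from purified HLA class II protein, with complex-bound radioactivity counted after 2–4 days of incubation and six concentrations spanning a 100,000-fold range.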
The target in a further data set is DRB1_0405 (Homo sapiens, UniProt P01903+P01911, A100R/A169T/D86S/F76Y/I96L/K127E/L162R/M171V/N62H/P40V/Q125Y/R42H/S133A/S149N/S66Y/V115G/V209L/W38E). The experiment in a line: Competitive MHC class II binding assay, DRB1_0405.
The target in a further data set is DQA10101-DQB10501 (Homo sapiens, UniProt P01909+P01920, A157S/A45G/A70V/C70R/D89V/E106S/E118A/E183D/E77G/F83G/G63E/H151Q/H199R/H252R/H253Q/I129T/I235V/I88M/INS77G/K197Q/L107V/L117V/L119Y/L178F/L71W/L74F/L85Q/L91A/L98M/M46L/N214S/P87R/Q116E/Q256R/Q57E/Q76K/R102G/R240Q/R75S/R78G/S102Y/S185I/S41F/S97I/T103A/T109R/T121G/T122I/T172A/T86R/V148I/V68A/V73E/Y34C/Y58G/Y62H). The experiment in a line: Competitive MHC class II binding assay, DQA10101-DQB10501. As to conditions: positive binding at cutoff 1000 nM; read-out: HLA-DQA10101-DQB10501.

A further data set addresses DRB1_1501 (Homo sapiens, UniProt P01903+P01911). The experiment in a line: Competitive MHC class II binding assay, DRB1_1501.
The next data set addresses DRB1_0802 (Homo sapiens, UniProt P01903+P01911, A100R/A103L/A169T/F76Y/H45Y/I96F/K41T/L162R/M171V/P40S/Q125H/Q178H/Q39Y/Q99D/R218S/R42G/S66Y/V115G/W38E). The experiment in a line: Competitive MHC class II binding assay, DRB1_0802.
The target of the next data set is DRB4_0101 (Homo sapiens, UniProt P01903+P13762, G164S). The experiment in a line: Competitive MHC class II binding assay, DRB4_0101.
The next data set deals with DRB1_1302 (Homo sapiens, UniProt P01903+P01911, A100E/A169T/K41T/L162R/M171V/P40S/Q125H/Q178H/Q39Y/Q99D/R42S/S66N/T262R/V115G/W38E/Y61H). The experiment in a line: Competitive MHC class II binding assay, DRB1_1302.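 Further: purified HLA class II protein incubated two to four days with a radiolabeled reference binder and test peptide at six concentrations over a 100,000-fold range, complex-bound radioactivity counted.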
The target of the next data set is DQA10501-DQB10201 (Homo sapiens, UniProt P01909+P01920, A45G/A70V/D89A/E106A/E77G/E98D/H199R/L107V/N214S/P84L/P87L/T103K/T109R/T172A/T60S/V78E/V99I/Y58L/Y62S/Y69I/Y79F). The experiment in a line: Competitive MHC class II binding assay, DQA10501-DQB10201.
The target in another data set is T1, DPA10103-DPB10201 (Homo sapiens, UniProt P04440+P20036, A65V/A84D/A85E/K98E).
T1 sequence (P20036 29-260): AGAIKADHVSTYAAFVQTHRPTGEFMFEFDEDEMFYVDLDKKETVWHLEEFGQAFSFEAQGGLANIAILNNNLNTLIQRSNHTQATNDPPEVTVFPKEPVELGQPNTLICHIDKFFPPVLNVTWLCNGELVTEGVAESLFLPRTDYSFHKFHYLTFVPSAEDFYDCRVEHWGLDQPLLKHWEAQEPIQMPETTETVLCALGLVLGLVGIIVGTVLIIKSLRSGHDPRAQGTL
T1 sequence (P04440 30-258 A65V/A84D/A85E/K98E): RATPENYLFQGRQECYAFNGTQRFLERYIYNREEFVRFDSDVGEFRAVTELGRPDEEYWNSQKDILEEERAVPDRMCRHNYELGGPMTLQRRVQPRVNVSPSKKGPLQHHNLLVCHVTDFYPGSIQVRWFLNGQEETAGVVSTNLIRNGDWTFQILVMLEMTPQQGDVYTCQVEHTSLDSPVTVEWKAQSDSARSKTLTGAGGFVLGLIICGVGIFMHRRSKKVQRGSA
The experiment in a line: Competitive MHC class II binding assay, DPA10103-DPB10201.

The target of another data set is DRB3_0202 (Homo sapiens, UniProt P01903+P79483, A212P/D57E/F66Y/L67A/R103Q/R218S/R40L/S89Y/T80R/V86D/Y55F/Y59H). The experiment in a line: Competitive MHC class II binding assay, DRB3_0202.
The target of another data set is T2, DPA10103-DPB10301 (Homo sapiens, UniProt P04440+P20036, A65V/A84D/A85E/E86D/F38Y/G113D/G114E/G40L/I94L/L37V/M105V/M116V/P115A/R125K/T199I).
T2 sequence (P20036 29-260): T1 sequence (P20036 29-260)
T2 sequence (P04440 30-258 L37V/F38Y/G40L/A65V/A84D/A85E/E86D/I94L/M105V/G113D/G114E/P115A/M116V/R125K/T199I/V234M): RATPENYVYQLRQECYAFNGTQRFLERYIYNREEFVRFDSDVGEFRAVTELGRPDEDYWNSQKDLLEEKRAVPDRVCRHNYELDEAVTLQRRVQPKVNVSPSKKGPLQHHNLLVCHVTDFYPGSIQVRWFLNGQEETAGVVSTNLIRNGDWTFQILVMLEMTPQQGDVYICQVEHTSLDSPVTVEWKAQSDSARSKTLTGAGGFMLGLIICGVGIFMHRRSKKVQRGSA
The experiment in a line: Competitive MHC class II binding assay, DPA10103-DPB10301.

A short description of data set [1]: Solubility of peptides in aqueous solutions at different pH (visual inspection, OD, HPLC). The class given is physicochemical. As to conditions: Table 11a; evaluated by visual inspection. The source says: This example describes modifications of parent peptides to improve the aqueous solubility, in particular to increase the solubility in an aqueous solution having pH in a physiologically acceptable range, e.g. from 6 to 8. Solubility is closely related to the ratio between hydrophilic and hydrophobic amino acid residues and the net charge state of the peptide. Peptides have zero net charge at pH=pI, and would be expected to show the lowest solubility at this pH. […] The solubility of these peptides was increased at pH values outside the physiological range (data not shown).
Peptides were tested for their ability to dissolve in aqueous solutions at different pH values. In short, each of the peptides were dissolved in water (pH about 5-6), hydrochloride solution at pH 2 (10 mM HCl), acetate buffer with pH 5 (20 mM acetate and 140 mM sodium chloride), phosphate buffer with pH 7 (20 mM phosphate and 140 mM sodium chloride) or bistrispropate buffer with pH 9 (20 mM bitrispropane and 140 mM sodium chloride, respectively, to produce a final molar concentration of the peptide of about 0.25 mM or 1 mM. Optionally, about 20% DMSO may be part of the solution. For comparison reasons, peptides were also dissolved in acetonitrile or DMSO. The solutions were inspected visually before and after centrifugation for turbidity, presence of particles/aggregates. In addition, presence of turbidity/particles/aggregates were detected by optical density (OD), but might also be detected by size-exclusion chromatography. Sub-visual particles may also be detected by dynamic light scattering (DLS) analysis. The solubility and stability of each peptide were also investigated using HPLC, e.g. RP-HPLC. For example, each of the solutions were injected onto the HPLC and the peak height or peak area of each of the peptides were compared to the corresponding peptide of a chromatogram of peptides dissolved in acetonitrile or DMSO—as peptides were assumed to be fully dissolved and stable in these solvents.

Another data set deals with DRB5_0101 (Homo sapiens, UniProt P01903+Q30154). The experiment in a line: Competitive MHC class II binding assay, DRB5_0101.
In the next data set the target is DRB3_0101 (Homo sapiens, UniProt P01903+P79483). The experiment in a line: Competitive MHC class II binding assay, DRB3_0101.
A further data set deals with DRB1_1101 (Homo sapiens, UniProt P01903+P01911, A100R/A169T/A87E/I96F/K41T/L162R/M171V/P40S/Q125H/Q178H/Q39Y/Q99D/R42S/S66Y/T262R/V115G/W38E). The experiment in a line: Competitive MHC class II binding assay, DRB1_1101.
The next data set deals with DRB1_0301 (Homo sapiens, UniProt P01903+P01911, A100K/A102G/A103R/A169T/F55Y/I96L/K41T/L162R/M171V/P40S/Q125H/Q178H/Q39Y/R42S/S66N/T106N/T262R/W38E/Y61H). The experiment in a line: Competitive MHC class II binding assay, DRB1_0301.

In the case of ATESAYLAYRNTSLD [pep-022], the IC50 at DRB1_0901, at DRB1_0401, at DRB1_0101, on DRB1_0701, on DRB1_0405 and at DQA10101-DQB10501 was below 1000 nM each time. In addition, the IC50 at DRB1_1501 and on DRB1_0802 was below 1000 nM throughout.
Turning to HRGKPFQLEAVFEANQNTKT [pep-091], the IC50 on DRB1_0901, on DRB4_0101, at DRB1_1302, at DQA10501-DQB10201, on DRB1_0101 and on DPA10103-DPB10201 was below 1000 nM in each case. In addition, the IC50 on DRB1_0405, at DRB3_0202, on DQA10101-DQB10501 and on DRB1_0802 was below 1000 nM each time.
As for KGQQYDIKYTWNVPKIA [pep-126], the IC50 on DRB1_0901, on DPA10103-DPB10301, on DRB1_1302, on DRB1_0101, at DRB1_0701 and on DRB3_0202 was below 1000 nM in each case. Besides, the IC50 on DRB5_0101, on DQA10101-DQB10501 and at DRB1_0802 was below 1000 nM in each case. In addition, in [1], the “Solubility at pH 7” value was “Clear”.
On to KSENVVVTVKLVGDNGVLAS [pep-109], for which the IC50 at DRB4_0101, at DRB1_1302, at DRB3_0101, on DRB1_0401, on DRB1_1101 and on DRB1_0301 was below 1000 nM each time. This sequence had an IC50 on DRB1_0802 below 1000 nM.
For the sequence QESYYRYVAREQSSRRPNAQ [pep-050], the IC50 at DPA10103-DPB10301, at DRB1_0401, at DRB1_1101, on DRB1_0301 and on DRB5_0101 was below 1000 nM throughout.
With “RGLKQMKRVGDANV [HDM35A, reference compound]”, the IC50 on DRB1_1101, at DRB1_0101 and on DRB1_0802 was below 1000 nM in each case.
Regarding “SYYRYVAREQS [HDM205, reference compound]”, the IC50 at DRB1_0901, at DRB4_0101, at DRB1_1302, at DRB1_0401, at DRB1_1101 and on DRB1_0701 was below 1000 nM throughout. Besides, the IC50 at DRB1_0405, at DRB1_1501 and on DRB1_0802 was below 1000 nM in each case.
As for VQESYYRYVAREQSSRRPNAQ [pep-124], the IC50 on DPA10103-DPB10301, on DRB1_1101, on DRB1_0701, on DPA10103-DPB10201, on DRB5_0101 and at DRB1_0802 was below 1000 nM each time.
